In assay [1] the target is T1, Human immunodeficiency virus type 1 protease (Human immunodeficiency virus 1, UniProt Q72874). Put plainly: In vitro concentration required to inhibit 50% activity of HIV protease was measured. Type of assay: functional.
The target in assay [2] is T1, Human immunodeficiency virus type 1 protease. Put plainly: In vitro binding affinity against HIV protease was measured.
The target is the same in assay [3]. Put plainly: In vitro concentration required to inhibit 50% activity of HIV protease was measured (exp 2). In kind it is functional.

As usually defined, the IC50 is the point on the concentration scale where inhibition reaches its midpoint. Low readings indicate inhibition by little substance, high ones a need for much substance. What is called Ki is a dissociation constant, usually derived from enzyme kinetics or from competition with a known ligand. Read a high Ki as lower affinity.

`CC[C@H](C)[C@H](NC(=O)[C@@H]1CCCN1C[C@H](O)[C@H](Cc1ccccc1)NC(=O)[C@H](CC(N)=O)NC(=O)[C@H](CC(C)C)NC(=O)[C@H](CO)NC(C)=O)C(=O)N[C@H](C(=O)OC)C(C)C` (stereo in doubt; 1S) yielded an IC50 in assay [1] of 3.4 nM. For the same molecule, affinity in assay [2] was put at a Ki of 0.24 nM.

Regarding `CC(=O)N[C@@H](CO)C(=O)N[C@@H](CC(C)C)C(=O)N[C@@H](CC(N)=O)C(=O)N[C@@H](Cc1ccccc1)[C@@H](O)CN1CCC[C@H]1C(=O)OC(C)(C)C`, the IC50 in assay [1] is 14 nM.

Molecule `CC[C@H](C)[C@H](NC(=O)[C@@H]1CCCN1C[C@H](O)[C@H](Cc1ccccc1)NC(=O)[C@H](CC(N)=O)NC(=O)[C@H](CC(C)C)NC(=O)[C@H](CO)NC(C)=O)C(=O)N[C@H](C(=O)OC)C(C)C` (stereo in doubt; 1R) showed a 50% inhibitory concentration (IC50) in assay [1] of 65 nM. The molecule further gave a Ki in assay [2] of 20 nM.

Molecule `CC[C@H](C)[C@H](NC(=O)[C@@H]1CCCN1C[C@H](O)[C@H](Cc1ccccc1)NC(=O)[C@H](CC(N)=O)NC(=O)OC(C)(C)C)C(=O)N[C@H](C(=O)OC)C(C)C` displayed an IC50 in assay [1] of 16 nM.

With `CC[C@H](C)[C@H](NC(=O)[C@@H]1CCCN1C[C@H](O)[C@H](Cc1ccccc1)NC(=O)[C@H](CC(N)=O)NC(=O)c1ccc2ccccc2n1)C(=O)N[C@@H](Cc1ccccc1)C(=O)OC`, the IC50 in assay [1] was determined as 2.3 nM.

As for `CC(C)(C)OC(=O)[C@@H]1CCCN1C[C@H](O)[C@H](Cc1ccccc1)NC(=O)[C@H](CC(N)=O)NC(=O)OCc1ccccc1`, the IC50 in assay [1] was 51 nM; in assay [3], 140 nM.

In turn, `CC(=O)N[C@@H](CO)C(=O)N[C@@H](CC(C)C)C(=O)N[C@@H](CC(N)=O)C(=O)N[C@@H](Cc1ccccc1)[C@H](O)CN1CCC[C@H]1C(=O)OC(C)(C)C` displayed an IC50 in assay [1] of 14 nM.

On to `CC(C)(C)OC(=O)[C@@H]1CCCN1C[C@@H](O)[C@H](Cc1ccccc1)NC(=O)[C@H](CC(N)=O)NC(=O)OCc1ccccc1`, for which the IC50 in assay [1] was 450 nM; in assay [3] it was 300 nM.

The molecule `CC[C@H](C)[C@H](NC(=O)[C@@H]1CCCN1C[C@@H](O)[C@H](Cc1ccccc1)NC(=O)[C@H](CC(N)=O)NC(=O)OC(C)(C)C)C(=O)N[C@H](C(=O)OC)C(C)C` showed an IC50 in assay [1] of 850 nM.

As to `CC[C@H](C)[C@H](NC(=O)[C@@H]1CCCN1C[C@H](O)[C@H](Cc1ccccc1)NC(=O)[C@H](CC(N)=O)NC(=O)OCc1ccccc1)C(=O)N[C@@H](Cc1ccccc1)C(=O)OC`, the IC50 in assay [1] came to 4 nM.

In assay [1], `CC[C@H](C)[C@H](NC(=O)[C@@H]1CCCN1CC(O)[C@H](Cc1ccccc1)NC(=O)[C@H](CC(N)=O)NC(=O)[C@H](CC(C)C)NC(=O)[C@H](CO)NC(C)=O)C(=O)N[C@H](C(=O)OC)C(C)C` (mixture of isomers) returned an IC50 of 9 nM. The inhibitory constant (Ki) in assay [2] came to 0.6 nM.

These data come from ChEMBL document CHEMBL1125635, “Effect of hydroxyl group configuration in hydroxyethylamine dipeptide isosteres on HIV protease inhibition. Evidence for multiple binding modes” (J Med Chem, 1991).
